The values that follow come from PubChem BioAssay (NCI).

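Each compound was tested at five concentrations against cells in 96-well plates for 48 hours. At the GI50, growth is halved. TGI is the concentration that stops growth completely.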

Among the test systems are EKVX NSCLC; MDA-N; OVCAR-5 ovarian; MCF7 breast; HOP-62 NSCLC; OVCAR-3 ovarian; T-47D breast; HCT-15 colon; A498 renal.
Assay in all cases: DTP human tumour cell line panel, 48 h

Usually TGI stands for the concentration giving total growth inhibition. A word on the GI50: it is the concentration that inhibits growth by half.

For the compound `COc1ccc(/C=C2\C[C@H]3[C@@H]4CCC5=C/C(=N/O)CC[C@]5(C)[C@H]4CC[C@]3(C)\C2=N\O)cc1`, the total growth inhibition concentration (TGI) in the assay on EKVX NSCLC was greater than 100 µM; with MDA-N, greater than 100 µM; with OVCAR-5 ovarian, greater than 100 µM; in the assay on MCF7 breast it was 88.5 µM; with HOP-62 NSCLC, greater than 100 µM; in the assay on OVCAR-3 ovarian it was greater than 100 µM. For the same compound, the total growth inhibition concentration (TGI) in the assay on T-47D breast and with HCT-15 colon was greater than 100 µM throughout.
On to `COC(=O)C1Cc2c(OC)ccc(OC)c2C(O)C1C(=O)OC` (configuration not stated), for which the TGI in the assay with EKVX NSCLC, with MDA-N, in the assay with OVCAR-5 ovarian, with MCF7 breast, in the assay with HOP-62 NSCLC and in the assay on OVCAR-3 ovarian was greater than 100 µM in each case. In the assay with T-47D breast, this compound showed a concentration for total growth inhibition (TGI) greater than 100 µM.
For `Cc1ccc(Cl)cc1N=NC(=O)NNc1cc(Cl)ccc1C`, the TGI is greater than 100 µM in the assay with MDA-N; 48.8 µM with A498 renal; 32.7 µM in the assay on OVCAR-5 ovarian; 80.7 µM in the assay with MCF7 breast; 23.6 µM with HOP-62 NSCLC; 37 µM in the assay on OVCAR-3 ovarian. For the same compound, the TGI in the assay with T-47D breast was greater than 100 µM; in the assay with HCT-15 colon, 95.4 µM.
As for `O=Cc1ccc(OC[C@H]2COC(=O)N2)cc1`, the total growth inhibition concentration (TGI) in the assay on EKVX NSCLC, in the assay on OVCAR-5 ovarian, in the assay on MCF7 breast, with HOP-62 NSCLC, with OVCAR-3 ovarian and in the assay on T-47D breast was greater than 100 µM throughout. The compound also came in with a total growth inhibition concentration (TGI) in the assay with HCT-15 colon greater than 100 µM.
With `COc1cc(/C=N/N=C(\N)NO)cc(OC)c1OC`, the TGI with EKVX NSCLC was greater than 100 µM; with A498 renal, greater than 100 µM; with OVCAR-5 ovarian, greater than 100 µM; in the assay with MCF7 breast it was 85.9 µM; in the assay with HOP-62 NSCLC it was greater than 100 µM; with OVCAR-3 ovarian, greater than 100 µM. The TGI in the assay with T-47D breast and in the assay with HCT-15 colon was greater than 100 µM in each case.
Take `Cc1cc(N/N=C/c2nc(-c3ccc(Cl)cc3)oc2C)c2cc(Br)ccc2n1`: the GI50 with EKVX NSCLC was 14.4 µM; in the assay on A498 renal, 10.4 µM; in the assay with OVCAR-5 ovarian it was 10.1 µM; in the assay with HOP-62 NSCLC, 1.87 µM; in the assay on OVCAR-3 ovarian it was 1.96 µM; with T-47D breast, 1.79 µM. In the assay on HCT-15 colon, the GI50 is 1.79 µM. In addition, the TGI was 28.1 µM in the assay on EKVX NSCLC; 26.5 µM in the assay with A498 renal; 21.9 µM in the assay with OVCAR-5 ovarian; 3.94 µM with HOP-62 NSCLC; 3.89 µM in the assay with OVCAR-3 ovarian; 3.51 µM in the assay on T-47D breast. Besides, the TGI with HCT-15 colon came out at 4.42 µM.
Consider `COc1cccc2c1C(=O)c1c(O)c3c(c(O)c1C2=O)C[C@@](O)(C(=O)COC(=O)c1ccccc1)C[C@@H]3OC1CC(N)C(O)C(C)O1` (some centres not stated), for which the GI50 in the assay on A498 renal is 0.0771 µM; in the assay on OVCAR-5 ovarian, 0.4 µM; in the assay on OVCAR-3 ovarian, 0.369 µM; in the assay with HCT-15 colon, 0.451 µM. For the same compound, the TGI in the assay on A498 renal was 0.261 µM; in the assay with OVCAR-5 ovarian, 1.64 µM; in the assay with OVCAR-3 ovarian, 1.42 µM; in the assay on HCT-15 colon, 1.76 µM.
Turning to `COc1ccc2c(O)c(S(=O)(=O)c3ccc(C)cc3)c(=O)oc2c1OC`, the TGI in the assay on EKVX NSCLC, with MDA-N, in the assay with OVCAR-5 ovarian, with MCF7 breast, in the assay with OVCAR-3 ovarian and in the assay on T-47D breast was greater than 100 µM in each case. In the assay on HCT-15 colon, this compound showed a TGI greater than 100 µM.
On to `CN=C(Nc1ccc(OC)c2ccccc12)SC`, for which the total growth inhibition concentration (TGI) in the assay with MDA-N, in the assay on OVCAR-5 ovarian, in the assay on MCF7 breast, with HOP-62 NSCLC, in the assay with OVCAR-3 ovarian and in the assay on T-47D breast was greater than 10 µM in each case. This compound came in with a TGI in the assay on HCT-15 colon greater than 10 µM.
On to `O=C(c1ccccc1)N1C(=O)N(c2ccccc2)C(=Nc2ccccc2)C1=Nc1ccccc1`, for which the total growth inhibition concentration (TGI) in the assay on EKVX NSCLC, in the assay with MDA-N, in the assay with A498 renal, in the assay on OVCAR-5 ovarian, in the assay on HOP-62 NSCLC and in the assay with T-47D breast was greater than 100 µM in each case. The same compound registered a TGI in the assay on HCT-15 colon greater than 100 µM.
Take `COc1ccc(-c2c(-c3ccc(OC)cc3)n3c(=O)n(C)c(=O)n23)cc1`: the TGI in the assay with EKVX NSCLC was greater than 100 µM; in the assay with A498 renal, 95.3 µM; with MCF7 breast, greater than 100 µM; in the assay with HOP-62 NSCLC it was greater than 100 µM; with OVCAR-3 ovarian, 51.6 µM; in the assay on T-47D breast it was 57.1 µM. In the assay with HCT-15 colon, this compound showed a total growth inhibition concentration (TGI) greater than 100 µM.
On to `O=c1[nH]nc(-c2ccccc2)n1/N=C/c1ccccc1O`, for which the concentration for total growth inhibition (TGI) with EKVX NSCLC, in the assay with MDA-N, with A498 renal, with OVCAR-5 ovarian, in the assay on MCF7 breast and with OVCAR-3 ovarian was greater than 100 µM throughout. In addition, the concentration for total growth inhibition (TGI) in the assay with T-47D breast and with HCT-15 colon was greater than 100 µM each time.
As to `CC(=O)C(C(=O)c1ccc(C)cc1)[C@H]1OC(C)(C)O[C@H]1[C@H]1COC(C)(C)O1` (some centres not stated), the TGI in the assay with EKVX NSCLC was found to be 11.7 µM; in the assay on MDA-N it was 6.63 µM; with A498 renal, 14.7 µM; with OVCAR-5 ovarian it was 18.3 µM; in the assay with MCF7 breast, 8.68 µM; with HOP-62 NSCLC it was 14.3 µM. The concentration for total growth inhibition (TGI) with T-47D breast was 18.9 µM; in the assay on HCT-15 colon it was 31.6 µM.
Turning to `O=c1oc(-c2ccc(O)cc2)cc2cc(O)ccc12`, the total growth inhibition concentration (TGI) with EKVX NSCLC was greater than 100 µM; in the assay with A498 renal it was 51.7 µM; in the assay on OVCAR-5 ovarian, greater than 100 µM; with MCF7 breast, 52.9 µM; in the assay on HOP-62 NSCLC, greater than 100 µM; in the assay with OVCAR-3 ovarian, greater than 100 µM. Further, the results for the TGI in the assay on T-47D breast and with HCT-15 colon were 49 µM and greater than 100 µM, respectively.
As to `N=c1oc2ccccc2cc1-c1nc2ccccc2[nH]1`, the TGI is 41.1 µM in the assay on EKVX NSCLC; 40.5 µM with MDA-N; greater than 100 µM in the assay on OVCAR-5 ovarian; greater than 100 µM in the assay on MCF7 breast; greater than 100 µM in the assay with HOP-62 NSCLC; greater than 100 µM in the assay with T-47D breast. Also, the TGI with HCT-15 colon was greater than 100 µM.
For `O=C(O)c1nc2ccc(C(F)(F)F)cc2nc1Nc1ccc(Cl)c(Cl)c1`, the TGI in the assay with EKVX NSCLC was determined as 22.8 µM; in the assay with MDA-N, 25.3 µM; in the assay with A498 renal, 27.4 µM; in the assay with OVCAR-5 ovarian, 28.9 µM; in the assay on MCF7 breast, 66.7 µM; in the assay on HOP-62 NSCLC, 20.6 µM. Moreover, the concentration for total growth inhibition (TGI) stood at 23.9 µM in the assay with OVCAR-3 ovarian and 22.6 µM in the assay on HCT-15 colon.
